Test results taken from US9605026B2, “Hydrogen-bond surrogate peptides and peptidomimetics for p53 reactivation” (New York University, priority 2013, dated 2017).

Experiments:
[1] = target: T1, HPV16 E6-p300 association (Homo sapiens, UniProt Q09472); assay: Immunoprecipitation of HPV16 E6-p300 association in UMSCC47 cells; type: cell-based; conditions: UMSCC47, 10 μM, 24 hours
T1 construct: UMSCC47 cells were treated with control (vehicle), CH1iA (10 μM), or CH1iB (10 μM) for 24 hours; endogenous in cells; host or cells: UMSCC47 (HPV16-positive HNSCC cells)
T1 sequence (Q09472 whole entry): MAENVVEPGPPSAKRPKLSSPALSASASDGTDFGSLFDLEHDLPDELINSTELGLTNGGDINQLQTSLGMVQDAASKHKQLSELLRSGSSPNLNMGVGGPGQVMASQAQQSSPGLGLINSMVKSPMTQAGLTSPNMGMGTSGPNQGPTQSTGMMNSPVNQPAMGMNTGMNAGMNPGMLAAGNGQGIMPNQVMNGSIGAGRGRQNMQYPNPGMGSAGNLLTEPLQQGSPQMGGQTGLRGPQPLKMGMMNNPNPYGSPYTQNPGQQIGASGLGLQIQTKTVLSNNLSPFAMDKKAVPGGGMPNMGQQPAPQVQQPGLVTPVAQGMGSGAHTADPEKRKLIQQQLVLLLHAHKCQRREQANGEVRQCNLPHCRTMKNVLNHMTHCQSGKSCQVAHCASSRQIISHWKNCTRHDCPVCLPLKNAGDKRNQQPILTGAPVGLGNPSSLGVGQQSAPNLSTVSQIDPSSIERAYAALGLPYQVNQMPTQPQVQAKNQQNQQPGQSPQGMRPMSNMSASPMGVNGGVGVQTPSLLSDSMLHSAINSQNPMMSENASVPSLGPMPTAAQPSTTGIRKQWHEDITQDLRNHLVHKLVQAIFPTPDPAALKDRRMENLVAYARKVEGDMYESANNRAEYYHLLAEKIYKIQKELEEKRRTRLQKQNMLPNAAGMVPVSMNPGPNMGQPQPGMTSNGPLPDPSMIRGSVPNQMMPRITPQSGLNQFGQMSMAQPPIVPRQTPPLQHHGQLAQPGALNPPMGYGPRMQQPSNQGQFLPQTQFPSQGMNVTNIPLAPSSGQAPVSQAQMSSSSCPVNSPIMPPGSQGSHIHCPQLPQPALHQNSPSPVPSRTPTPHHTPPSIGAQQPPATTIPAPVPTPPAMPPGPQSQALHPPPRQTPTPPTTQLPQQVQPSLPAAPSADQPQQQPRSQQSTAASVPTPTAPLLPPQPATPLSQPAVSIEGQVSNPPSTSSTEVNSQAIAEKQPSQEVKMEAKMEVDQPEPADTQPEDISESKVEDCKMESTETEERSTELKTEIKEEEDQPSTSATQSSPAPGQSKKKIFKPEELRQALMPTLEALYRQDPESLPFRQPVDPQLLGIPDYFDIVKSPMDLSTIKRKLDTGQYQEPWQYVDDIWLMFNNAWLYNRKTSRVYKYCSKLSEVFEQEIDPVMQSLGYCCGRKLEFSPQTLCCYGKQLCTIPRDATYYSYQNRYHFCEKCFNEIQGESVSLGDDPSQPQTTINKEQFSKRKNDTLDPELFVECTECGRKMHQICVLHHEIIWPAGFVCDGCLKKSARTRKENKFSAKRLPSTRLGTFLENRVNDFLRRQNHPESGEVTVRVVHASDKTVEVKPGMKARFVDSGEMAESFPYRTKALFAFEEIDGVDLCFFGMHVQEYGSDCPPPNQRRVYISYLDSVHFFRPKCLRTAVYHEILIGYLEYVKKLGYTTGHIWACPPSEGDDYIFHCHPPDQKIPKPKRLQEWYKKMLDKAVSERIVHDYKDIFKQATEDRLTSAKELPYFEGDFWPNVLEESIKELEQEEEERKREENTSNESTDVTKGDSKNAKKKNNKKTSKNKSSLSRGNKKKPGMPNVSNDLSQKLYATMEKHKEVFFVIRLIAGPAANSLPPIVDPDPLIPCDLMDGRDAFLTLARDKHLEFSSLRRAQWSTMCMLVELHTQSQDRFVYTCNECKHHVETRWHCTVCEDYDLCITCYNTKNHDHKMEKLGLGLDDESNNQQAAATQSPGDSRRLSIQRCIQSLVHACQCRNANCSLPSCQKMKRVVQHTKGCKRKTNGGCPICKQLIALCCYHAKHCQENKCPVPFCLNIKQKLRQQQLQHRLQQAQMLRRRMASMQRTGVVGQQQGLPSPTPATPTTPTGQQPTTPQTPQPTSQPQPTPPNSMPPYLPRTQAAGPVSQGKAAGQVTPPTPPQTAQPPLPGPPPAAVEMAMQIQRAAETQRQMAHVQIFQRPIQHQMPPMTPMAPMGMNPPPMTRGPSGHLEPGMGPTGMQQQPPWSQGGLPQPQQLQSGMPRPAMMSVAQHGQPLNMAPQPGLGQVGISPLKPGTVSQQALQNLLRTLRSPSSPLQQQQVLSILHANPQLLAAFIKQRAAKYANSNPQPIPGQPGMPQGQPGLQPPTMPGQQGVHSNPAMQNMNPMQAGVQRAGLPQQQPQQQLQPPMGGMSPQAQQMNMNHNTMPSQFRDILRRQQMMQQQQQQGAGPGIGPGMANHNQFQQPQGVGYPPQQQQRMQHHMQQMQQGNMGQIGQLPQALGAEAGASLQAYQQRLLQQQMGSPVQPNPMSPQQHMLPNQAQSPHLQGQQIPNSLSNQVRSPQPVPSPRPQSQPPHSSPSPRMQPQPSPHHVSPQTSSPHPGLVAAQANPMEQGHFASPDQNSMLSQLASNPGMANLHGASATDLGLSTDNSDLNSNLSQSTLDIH
Procedure: FIG. 5C is a graph of p53 activity. UMSCC47 (left) and UMSCC74A (right) cells were co-transfected with a p53 Firefly luciferase reporter plasmid and a control Renilla luciferase plasmid. After 24 hours, cells were treated with control (vehicle), CH1iA (10 μM), or CH1iB (10 μM) for 24 hours. Firefly luciferase activity was normalized to Renilla luciferase activity to control for transfection efficiency. Data is normalized to control and presented as mean±SEM. *P<0.05, n=3. FIG. 5D is a western blot showing total and acetylated p53 levels. UMSCC47 (left) and UMSCC74A (right) cells were treated with control (vehicle), CH1iA (10 μM), or CH1iB (10 μM) for 24 hours. Cell lysates were immunoblotted with anti-p53 or anti-acetylated[K382]-p53 antibody. FIG. 5E is a pair of graphs of p300, p53, p21, miR-34a, and miR-200c expression. UMSCC47 (top panel) and UMSCC74A (bottom panel) cells were treated with control (vehicle), CH1iA (10 μM), or CH1iB (10 μM) for 24 hours. mRNA expression was determined using qPCR with validated TaqMan assays. Data is normalized to control cells and presented as mean±SEM. *P<0.01, control vs. CH1iB, n=3. […] UMSCC47 cells were treated with control (vehicle), CH1iA (10 μM), or CH1iB (10 μM) for 24 hours. Cell lysates were extracted, immunoprecipitated with anti-p300 antibody, and immunoblotted with anti-E6 antibody. […]

UMSCC47 cells [2] = assay: Clonogenic survival of UMSCC47 cells; type: cell-based, human; conditions: UMSCC47, 10 μM at day 0, colonies at 14 days, vs vehicle
UMSCC47 cells [3] = assay: Apoptosis (Annexin V FACS) in UMSCC47 cells; type: cell-based, human; conditions: UMSCC47, 10 μM, 24 hours, vs vehicle
Procedure: (§1) FIG. 6A is a western blot showing total and acetylated p53 levels. UMSCC47 cells were treated with control (vehicle), CH1iB (10 μM), cis-platinum (10 μM), or CH1iB (10 μM) and cis-platinum (10 μM) for 24 hours. Cell lysates were immunoblotted with anti-p53 or anti-acetylated[K382]-p53 antibody. FIG. 6B is a graph of p53 transcriptional activity. UMSCC47 cells were co-transfected with a p53 Firefly luciferase reporter plasmid and a control Renilla luciferase plasmid. After 24 hours, cells were treated with control (vehicle), CH1iB (10 μM), cis-platinum (10 μM), or CH1iB (10 μM) and cis-platinum (10 μM) for 24 hours. Firefly luciferase activity was normalized to Renilla luciferase activity to control for transfection efficiency. […] UMSCC47 cells were treated with control (vehicle), CH1iB (10 μM), cis-platinum (10 μM), or CH1iB (10 μM) and cis-platinum (10 μM) for 24 hours. mRNA expression was determined using qPCR with validated TaqMan assays. […] FACS was used to quantitate Annexin V-positive apoptotic cells (left panel). […] Tumorsphere formation efficiency was calculated as the number of tumorspheres (≧50 μm in diameter) formed in 7 days divided by the original number of cells seeded. Tumorsphere diameter was measured using NIS-Elements software. […]
Cell proliferation was assessed using the MTT reagent (Roche Molecular Biochemicals, Nutley, N.J.) to detect metabolic active cells. […]

UMSCC47 cells [4] = assay: Tumorsphere formation of UMSCC47 cells; type: cell-based, human; conditions: UMSCC47, 10 μM, 7 days, vs vehicle
Procedure: as §1

“XELA*RALDQ-NH2 (ELXRALDQ; HBS: 4-pentenoic acid, N-allylalanine; C-terminal amide; CH1iB) [X 4-pentenoic acid, A* N-allylalanine]” was tested, and the “association between E6 and p300” value [1] was “reduced”, the “reduction (inhibition) of clonogenic survival” value (UMSCC47 cells [2]) was 35% and the enhancement of apoptosis (UMSCC47 cells [3]) was 353%. For the same substance, the “reduction of tumorsphere formation” value (UMSCC47 cells [4]) was 20%.
